Data: US8008304B2, “Substituted propiolic acid amides and their use for producing drugs” (Grüenthal GmbH, priority 2005, dated 2011)
pIC50: −log10 of the molar value. Where a name gives a salt, the structure may show the parent alone.

Target: T1, mGluR5 receptor (Sus scrofa, UniProt I3LUI7)
T1 construct: from tissue; host or cells: pig brain halves without medulla, cerebellum and pons
Assay: Inhibition of [3H]-MPEP bond in the mGluR5 receptor bond assay (pig brain homogenate)
Type: binding
Details: 450 μg protein from pig brain homogenate, 5 nM [3H]-MPEP, 60 min, room temperature
Procedure: Substituted propiolic acid amides of the above-mentioned general formula I are likewise particularly preferred, which, after 60 minutes of incubation in 450 μg protein from pig brain homogenate at a temperature between 20° C. and 25° C. in a concentration of less than 2000 nM, preferably of less than 1000 nM, particularly preferably of less than 700 nM, very particularly preferably of less than 100 nM, even more preferably of less than 30 nM, bring about a 50-percent displacement of [^3H]-2-methyl-6-(3-methoxyphenyl)-ethynylpyridine which is present in a concentration of 5 nM.
Thereby, the determination of the displacement of [^3H]-2-methyl-6-(3-methoxyphenyl)-ethynylpyridine is performed as described in the section Pharmacological Methods, I. Method for determining the inhibition of [^3H]-MPEP-bonding in the mGluR5 receptor bonding assay.
I. Method for Determining the Inhibition of the [^3H]-MPEP Bond in the mGluR5 Receptor Bond Assay
Pig brain homogenate is produced by homogenisation (Polytron PT 3000, Kinematica AG, 10,000 rpm for 90 seconds) of pig brain halves without medulla, cerebellum and pons in buffer pH 8.0 (30 mM Hepes, Sigma, order no. H3375+1 tablet complete to 100 ml, Roche Diagnostics, order no. 1836145) in ratio 1:20 (brain weight/volume) and differential centrifugation at 900×g and 40,000×g. In each case, 450 μg protein from brain homogenate is incubated with 5 nM ^3[H]-MPEP (Tocris, order no. R1212) (MPEP=2-methyl-6-(3-methoxyphenyl)-ethynylpyridine) in 250 μl incubation batches in 96 well microtitration plates and the compounds to be tested (10 μM in the test) in buffer (as above) at room temperature for 60 min.
Thereafter, the batches are filtered with the help of a Brandel Cell Harvester (Brandel, TYP Robotic 9600) on unifilter plates with glass fibre filter mats (Perkin Elmer, order no. 6005177) and subsequently washed with buffer (as above) 3 times with in each case 250 μl per sample. The filter plates are subsequently dried for 60 min at 55° C. 30 μL Ultima Gold™ scintillator is subsequently added per well (Packard BioScience, order no. 6013159) and the samples are measured after 3 hours on the β-counter (Mikrobeta, Perkin Elmer). The unspecific bond is determined by addition of 10 μM MPEP (Tocris, order no. 1212).

T1 sequence (I3LUI7 19-1212): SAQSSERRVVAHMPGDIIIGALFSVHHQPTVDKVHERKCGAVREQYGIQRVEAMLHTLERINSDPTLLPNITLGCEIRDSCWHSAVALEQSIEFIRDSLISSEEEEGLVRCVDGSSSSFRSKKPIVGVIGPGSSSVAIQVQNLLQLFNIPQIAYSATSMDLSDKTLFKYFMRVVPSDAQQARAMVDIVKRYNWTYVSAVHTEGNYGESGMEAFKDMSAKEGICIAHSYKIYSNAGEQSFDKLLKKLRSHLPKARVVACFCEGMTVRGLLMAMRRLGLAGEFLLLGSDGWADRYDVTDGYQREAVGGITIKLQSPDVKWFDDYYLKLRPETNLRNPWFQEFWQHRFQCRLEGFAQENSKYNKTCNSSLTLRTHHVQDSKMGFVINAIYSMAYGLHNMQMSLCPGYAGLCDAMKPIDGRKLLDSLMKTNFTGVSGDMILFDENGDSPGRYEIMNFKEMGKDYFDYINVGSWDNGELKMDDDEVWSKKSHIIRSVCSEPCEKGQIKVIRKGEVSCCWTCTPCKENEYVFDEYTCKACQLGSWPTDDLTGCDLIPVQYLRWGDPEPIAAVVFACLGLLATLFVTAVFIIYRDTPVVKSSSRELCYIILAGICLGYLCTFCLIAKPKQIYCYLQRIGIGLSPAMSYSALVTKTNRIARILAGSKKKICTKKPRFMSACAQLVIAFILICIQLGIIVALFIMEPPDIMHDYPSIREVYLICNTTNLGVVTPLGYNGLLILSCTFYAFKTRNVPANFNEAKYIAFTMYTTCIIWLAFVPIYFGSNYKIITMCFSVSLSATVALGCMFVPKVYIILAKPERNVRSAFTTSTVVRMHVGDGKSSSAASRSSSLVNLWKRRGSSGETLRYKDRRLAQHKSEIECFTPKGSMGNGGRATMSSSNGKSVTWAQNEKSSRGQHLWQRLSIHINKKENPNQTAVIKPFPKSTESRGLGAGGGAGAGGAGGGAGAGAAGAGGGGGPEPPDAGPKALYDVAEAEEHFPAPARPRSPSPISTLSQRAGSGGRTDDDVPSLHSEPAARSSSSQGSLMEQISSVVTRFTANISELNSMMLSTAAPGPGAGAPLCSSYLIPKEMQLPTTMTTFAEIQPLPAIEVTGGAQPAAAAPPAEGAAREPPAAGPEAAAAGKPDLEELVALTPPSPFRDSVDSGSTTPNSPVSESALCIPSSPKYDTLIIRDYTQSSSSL

| SMILES | pIC50 |
| --- | --- |
| CC1CN(c2nncs2)CCN1C(=O)C#Cc1cccc(Cl)c1 (stereo not drawn) [Example 5, 2-methyl 1-(3-(3-chloro-phenyl)-propiolyl)-4-(1,3,4-thiadiazol-2-yl)-piperazine] | 7.57 |
| CN(CCNC(=O)C#Cc1cccc(Cl)c1)c1nncs1 [Example 6, 3-(3-chlorophenyl)-N-(2-(methyl(1,3,4-thiadiazol-2-yl)amino)ethyl)propiolamide] | 7.68 |
| CN(CCNC(=O)C#Cc1cccc(Cl)c1)c1cncs1 [Example 7, 3-(3-chlorophenyl)-N-(2-(methyl(thiazol-5-yl)amino)ethyl)propiolamide] | 9.30 |
| CN(CCNC(=O)C#Cc1cccc(Cl)c1)c1nccn1C [Example 8, 3-(3-chlorophenyl)-N-(2-(methyl(1-methyl-1H-imidazol-2-yl)amino)ethyl)propiolamide] | 6.46 |

Now from value to compound:

| pIC50 | SMILES |
| --- | --- |
| 5.72 | O=C(C#Cc1ccccc1)N1CCN(c2ccsc2)CC1 [Example 1, 1-(3-phenyl-propiolyl)-4-(thiophene-3-yl)-piperazine hydrochloride] |
| 6.20 | O=C(C#Cc1ccccc1)N1CCN(c2cscn2)CC1 [Example 2, 1-(3-Phenyl-propiolyl)-4-(thiazol-4-yl)-piperazine] |
| 5.32 | Cn1ccnc1N1CCN(C(=O)C#Cc2ccccc2)CC1 [Example 3, 1-(3-phenyl-propiolyl)-4-(1-methyl-imidazol-2-yl)-piperazine hydrochloride] |
| 7.80 | C[C@@H]1CN(c2cscn2)CCN1C(=O)C#Cc1cccc(Cl)c1 [Example 4, (R)-2-methyl-1-(3-(3-chloro-phenyl)-propiolyl)-4-(thiazol-4-yl)-piperazine] |

System: not listed separately
Assay: Formaline test in rats (phase 2, chronic pain component)
Type: in vivo
Details: phase 2 (21 to 27 min after formaline injection)
Procedure: III. Formaline Test in Rats: The formaline test (Dubuisson, D. and Dennis, S. G., 1977, Pain, 4, 161-174) represents a model for acute and chronic pain. A biphasic nociceptive reaction, which is recorded by observation of three clearly differentiable behavioural patterns, is induced by a single formaline injection into the dorsal side of a rear paw in freely mobile test animals. The reaction has two phases: Phase 1=Immediate reaction (duration up to 10 min; paw shaking, licking), Phase 2=Late reaction (after a rest phase; likewise, paw shaking, licking; duration up to 60 min). The 1st phase reflects a direct stimulation of the peripheral nocisensors with high spinal nociceptive input or glutamate release (acute pain phase); the 2nd phase reflects a spinal and peripheral hypersensitisation (chronic pain phase). In the investigations presented here, the chronic pain component (phase 2) was evaluated. Formaline with a volume of 50 μl and a concentration of 5% is administered subcutaneously into the dorsal side of the right rear paw of each animal. The substances to be tested are administered for 30 min before the formaline injection orally (p.o.), intravenously (i.v.) or intraperitoneally (i.p.). […]

| SMILES | Formaline test (rat) i.v. Reduction in nociceptive behaviour over control at 10 mg/kg |
| --- | --- |
| C[C@@H]1CN(c2cscn2)CCN1C(=O)C#Cc1cccc(Cl)c1 [Example 4, (R)-2-methyl-1-(3-(3-chloro-phenyl)-propiolyl)-4-(thiazol-4-yl)-piperazine] | 75% |
